How the values were obtained:
Format in all cases: cell-based
rat hepatocytes = assay: DNA synthesis ([3H]thymidine incorporation) in cultured rat hepatocytes; conditions: for reduction of the effects of AR on DNA synthesis: AR 100 nM, PD98059 10 μM, SP600125 20 μM; for effect on DNA synthesis stimulated by AR (in words): AR 100 nM with PD153035 1 μM, LY294002 20 μM, SB202190 25 μM, TGFβ 8 ng/ml
Description: For DNA synthesis, rat hepatocytes were plated to a density of 3×10^4 cells/well in 96-well plates coated with collagen in MEM medium supplemented with 10% FCS. Five hours after plating, the medium was changed and cells were maintained in absence of serum for another 20 hours. DNA synthesis was assayed after 30 h of treatment with AR. A pulse of [^3H]thymidine was administered (1 μCi/well)(Amersham Biosciences, Piscataway, N.J., USA) 22 h after the addition of AR. Cells were harvested, and the incorporation of thymidine was determined with a scintillation counter. Evaluations were made of the effect of AR on DNA synthesis in the presence of MEK1 inhibitor, PD98059, PI-3K inhibitor, LY294002, p38 MAPK inhibitor, SB202190, JNK inhibitor, SP600125, and of the EGF-R tyrosine kinase activity inhibitor, PD153035—all supplied by Calbiochem.

[1] = test system: mouse hepatocytes in primary culture; assay: Apoptosis induced by actinomycin D and Jo2 antibody in mouse hepatocytes in primary culture; conditions: AR 20 nM; PD153035 1 μM, PD98059 10 μM, LY-294002 20 μM; actinomycin D and Jo2
Excerpt: In order to determine whether the in vivo antiapoptotic effects of AR could be mediated by direct action of AR on liver parenchymal cells, the inventors used mouse hepatocytes in primary culture. It has been reported that hepatocytes exposed to Jo-2 antibodies undergo apoptosis effectively in presence of actinomycin D [(5), (6), (33) Ni, R., Tomita, Y., Matsuda, K., Ichiara, A., Ishimura, K., Ogasawara, J., Nagata, S. 1994. Fas-mediated apoptosis in primary cultured mouse hepatocytes. Exp. Cell Res. 215: 332-337]. Hepatocytes were pretreated with different concentrations of AR during […] before addition of actinomycin D and Jo2 antibody. Measurements of apoptosis and related molecular events, were made 18 h later. […] Likewise, they found antiapoptotic protein Bcl-xL to be induced by treatment with AR in mouse hepatocytes treated with Jo2 (FIG. 4B). In order to identify the AR antiapoptotic signaling mechanisms, PI-3K/Akt and ERK1/2 pathways were studied, as they are general mediators of cell survival [(4), (6)]. […] A key signaling molecule implicated in protection against liver damage induced by Fas is STAT3 [(34) Shen, Y., Devgan, G., Darnell, J. E., Bromberg, J. F. 2001. Constitutively activated Stat3 protects fibroblasts from serum withdrawal and UV-induced apoptosis and antagonizes the proapoptotic effects of activated Statl. Proc. Natl. Acad. Sci. USA. 98: 1543-1548. (35) Haga, S., Terui, K., Zhang, H. Q., Enosawa, S., Ogawa, W., Inoue, H., Okuyama, T., Takeda, K., Akira, S., Ogino, T., et al. 2003. Stat3 protects against Fas-induced liver injury by redox-dependent and -independent mechanisms. J. Clin. Invest. 112: 989-998].
(§1) Hepatocytes were isolated from male Wistar rats (150 g) and C57/BL6 mice (20 g) by perfusion with collagenase (Gibco-BRL, Paisley, UK) as described elsewhere [(18), (20)]. Cells (5×10^5 cells per well) were plated onto 6-well plates coated with collagen (type I collagen, Collaborative Biomedical, Bedford, Mass., USA). Cultures were maintained in MEM medium supplemented with 10% fetal calf serum (FCS), non-essential amino acids, glutamine 2 mM and antibiotics (all supplied by Gibco-BRL). After 2 h of incubation, the medium was removed and cells were again cultured in the same medium with 5% FCS. Where applicable, hepatocytes were treated with IL-1β or TNFα from Roche (Mannheim, Germany), HGF or forskolin from Calbiochem (San Diego, Calif., USA), IL6 from RD Systems (Wiesbaden-Nordenstadt, Germany), or PGE2 from Alexis QBiogene (Carlsbad, Calif., USA).
Apoptosis was induced in cultured mouse hepatocytes by treatment with 0.5 μg/ml of Jo2 antibody and 0.05 μg/ml of actinomycin D as described elsewhere (5). Where applicable, the hepatocytes were treated with AR 6 h before the addition of Jo2 antibody and actinomycin D. Apoptosis was estimated by determining soluble histone-DNA complexes using the Cell Death Detection Assay (Roche). ELISA tests for determining cell death were carried out following the manufacturer's instructions. The specific enrichment of mono- and oligonucleosomes released in the cytoplasm (enrichment factor, EF) was calculated as the ratio between the absorbance values of the samples corresponding to treated cells and control cells. […]
Caspase-3 activity in mouse hepatocytes and liver tissue lysates was assessed using the Caspase-3/CPP32 colorimetric assay kit (BioVision, Palo Alto, Calif., USA). […]

[2] = test system: AR gene expression in rat hepatocytes; assay: AR gene expression in cultured rat hepatocytes (real time PCR); conditions: IL-1β 2 ng/ml; PGE2 10 μM; forskolin, hydrogen peroxide, menadione data not shown
Description: as §1
Total RNA was extracted using TRI reagent (Sigma). […] of RNA were treated with DNase I (Gibco-BRL) before reverse transcription, for which M-MLV enzyme was used (Gibco-BRL) in the presence of RNase OUT (Gibco-BRL). For each PCR reaction 1/10 of each preparation of cDNA was used. PCR products were subjected to electrophoresis in 2% agarose gels, followed by staining with ethidium bromide and quantification using Molecular Analyst software (Bio-Rad, Hercules, Calif., USA). Data were normalized with respect to β-actin gene expression levels. […] All primers were designed to distinguish between the amplification of genomic DNA and cDNA, and all products were sequenced to confirm specificity. The primers used are described below in Table I: […]
Real time PCR was performed using an iCycler (BioRad) and iQ SYBR Green Supermix (Bio-Rad). In order to monitor the specificity of final PCR products, the latter were analysed by fusion curves and electrophoresis. The amount of each transcript was expressed as n-fold the difference versus expression of the reference gene (β-actin)(2^ΔCt, where ΔCt represents the difference in threshold cycle between target genes and control gene).

Compound	effect on DNA synthesis stimulated by AR (in words) (rat hepatocytes)	AR gene expression [2]	also measured
COc1cccc(-c2cc(=O)c3ccccc3o2)c1N [PD98059, reference compound]			reduction of the effects of AR on DNA synthesis (rat hepatocytes): 70%; effect of inhibitor on the protection against apoptosis afforded by AR [1]: did not interfere
COc1cc2ncnc(Nc3cccc(Br)c3)c2cc1OC [PD153035, reference compound]	completely prevents		effect of inhibitor on the protection against apoptosis afforded by AR [1]: protection afforded by AR was lost
CCCCC[C@H](O)/C=C/[C@H]1[C@H](O)CC(=O)[C@@H]1C/C=C\CCCC(=O)O [PGE2, prostaglandin E2]		rapid induction	
Oc1ccc(-c2nc(-c3ccncc3)c(-c3ccc(F)cc3)[nH]2)cc1 [SB202190]	no significant effect		
Oc1c2ccccc2c2c3c(cccc13)N=N2 [SP600125]			reduction of the effects of AR on DNA synthesis (rat hepatocytes): 70%
OO [hydrogen peroxide]		no effect	
CC1=CC(=O)c2ccccc2C1=O [menadione]		no effect	
IL-1β: cytokine implicated in liver inflammatory and regenerative processes (Roche)		stimulate AR gene expression	
transforming growth factor β [TGFβ]	abrogated		

Source: US20080064629A1, “Amphiregulin as a Protective Agent in Acute Hepatic Injury” (priority 2004, published 2008)
